# In US10358436B2, “Kinase inhibitors and method of treating cancer” (University Health Network, priority 2010, dated 2019):
# Counter-ions that a name gives are not always drawn.
# Target: Aurora A (Homo sapiens (Human), UniProt O14965)
# Assay: Aurora A inhibition assay (Z-Lyte)
# Assay type: biochemical
# Sequence of Aurora A (O14965 whole entry): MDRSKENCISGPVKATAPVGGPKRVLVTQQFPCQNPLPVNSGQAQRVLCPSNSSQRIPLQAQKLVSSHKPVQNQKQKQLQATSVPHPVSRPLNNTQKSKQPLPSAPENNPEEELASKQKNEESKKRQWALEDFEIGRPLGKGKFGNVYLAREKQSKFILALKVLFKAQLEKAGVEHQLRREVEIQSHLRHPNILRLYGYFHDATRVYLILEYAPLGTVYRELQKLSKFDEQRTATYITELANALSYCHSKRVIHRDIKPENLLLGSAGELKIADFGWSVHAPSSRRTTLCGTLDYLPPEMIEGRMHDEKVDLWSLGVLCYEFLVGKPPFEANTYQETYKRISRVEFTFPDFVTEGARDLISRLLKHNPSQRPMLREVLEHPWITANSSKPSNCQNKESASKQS
row,Structure (SMILES),inhibition at 1 µM
1,"O=C1Nc2ccccc2[C@@]12C[C@@H]2c1ccc2c(/C=C/c3cccnc3)n[nH]c2c1 [Example A30, (1S,2R)-2-(3-((E)-2-(pyridin-3-yl)vinyl)-1H-indazol-6-yl)spiro[cyclopropane-1,3′-indolin]-2′-one]",> 50%
2,"O=C1Nc2ccccc2[C@]12C[C@H]2c1ccc2c(/C=C/c3ccc(CN4CCCCC4)cc3)n[nH]c2c1 [Example A58, (1R,2S)-(E)-2-(3-(4-(piperidin-1-ylmethyl)styryl)-1H-indazol-6-yl)spiro[cyclopropane-1,3′-indolin]-2′-one 2,2,2-trifluoroacetate]",> 50%
3,"COc1ccc2c(c1)[C@]1(C[C@H]1c1ccc3c(-c4ccc(OCCn5ccnc5)cc4)n[nH]c3c1)C(=O)N2 [Example A108, (1R,2S)-2-(3-(4-(2-(1H-imidazol-1-yl)ethoxy)phenyl)-1H-indazol-6-yl)-5′-methoxyspiro[cyclopropane-1,3′-indolin]-2′-one 2,2,2-trifluoroacetate]",< 50%
4,"O=C1Nc2ccccc2[C@]12C[C@H]2c1ccc2c(/C=C/c3ccc(CN4CCCCC4)nc3)n[nH]c2c1 (relative stereo) [Example A63, (1R*,2S*)-(E)-2-(3-((E)-2-(6-(piperidin-1-ylmethyl)pyridin-3-yl)vinyl)-1H-indazol-6-yl)spiro[cyclopropane-1,3′-indolin]-2′-one 2,2,2-trifluoroacetate salt]",> 50%
5,"O=C1Nc2ccc(F)cc2[C@]12C[C@H]2c1ccc2c(I)n[nH]c2c1 (relative stereo) [Example A40, (1R*,2S*)-5′-fluoro-2-(3-iodo-1H-indazol-6-yl)spiro[cyclopropane-1,3′-indolin]-2′-one]",< 50%
6,"COc1ccc2c(c1)[C@]1(C[C@H]1c1ccc3c(-c4ccc(OCCN5CCCCC5)cc4)n[nH]c3c1)C(=O)N2 [Example A67, (1R,2S)-5′-methoxy-2-(3-(4-(2-(piperidin-1-yl)ethoxy)phenyl)-1H-indazol-6-yl)spiro[cyclopropane-1,3′-indolin]-2′-one 2,2,2-trifluoroacetate salt]",< 50%
7,"CCN1CCN(c2ccc(-c3n[nH]c4cc([C@@H]5C[C@@]56C(=O)Nc5ccc(OC)cc56)ccc34)cc2)CC1 [Example A99, (1R,2S)-2-(3-(4-(4-ethylpiperazin-1-yl)phenyl)-1H-indazol-6-yl)-5′-methoxyspiro[cyclopropane-1,3′-indolin]-2′-one 2,2,2-trifluoroacetate]",< 50%
8,"O=C1Nc2ccccc2[C@]12C[C@H]2c1ccc2c(I)n[nH]c2c1 [Example A10, (1R,2S)-2-(3-iodo-1H-indazol-6-yl)spiro[cyclopropane-1,3′-indolin]-2′-one]",< 50%
9,"CN1CCc2ccc(/C=C/c3n[nH]c4cc([C@@H]5C[C@@]56C(=O)Nc5ccccc56)ccc34)cc2C1 [Example A65, (1R,2S)-2-(3-((E)-2-(2-methyl-1,2,3,4-tetrahydroisoquinolin-7-yl)vinyl)-1H-indazol-6-yl)spiro[cyclopropane-1,3′-indolin]-2′-one 2,2,2-trifluoroacetate salt]",> 50%
10,"Cc1ccc2c(c1)[C@]1(C[C@H]1c1ccc3c(/C=C/c4ccc(CN5CCOCC5)cc4)n[nH]c3c1)C(=O)N2 (relative stereo) [Example A196, (1R*,2S*)-(E)-5′-methyl-2-(3-(4-(morpholinomethyl)styryl)-1H-indazol-6-yl)spiro[cyclopropane-1,3′-indolin]-2′-one 2,2,2-trifluoroacetate]",> 50%
11,"O=C1Nc2ccccc2[C@]12C[C@H]2c1ccc2c(I)n[nH]c2c1 (relative stereo) [Example A9, (1R*,2S*)-2-(3-iodo-1H-indazol-6-yl)spiro[cyclopropane-1,3′-indolin]-2′-one]",< 50%
12,"O=C1Nc2ccccc2[C@]12C[C@H]2c1ccc2c(/C=C/c3cccnc3)n[nH]c2c1 (relative stereo) [Example A28, (1R*,2S*)-2-(3-((E)-2-(pyridin-3-yl)vinyl)-1H-indazol-6-yl)spiro-[cyclopropane-1,3′-indolin]-2′-one]",> 50%

# The next lines start with the values.
row,inhibition at 1 µM,Structure (SMILES)
1,< 50%,"COc1cc2c(cc1OC)[C@]1(C[C@H]1c1ccc3c(/C=C/c4ccc(CN(C)C)cc4)n[nH]c3c1)C(=O)N2 (relative stereo) [Example A168, (1R*,2S*)-(E)-2-(3-(4-((dimethylamino)methyl)styryl)-1H-indazol-6-yl)-5′,6′-dimethoxyspiro[cyclopropane-1,3′-indolin]-2′-one 2,2,2-trifluoroacetate]"
2,< 50%,"COc1ccc2c(c1)[C@]1(C[C@H]1c1ccc3c(-c4cccc(CN5CCOCC5)c4)n[nH]c3c1)C(=O)N2 (relative stereo) [Example A136, (1R*,2S*)-5′-methoxy-2-(3-(3-(morpholinomethyl)phenyl)-1H-indazol-6-yl)spiro[cyclopropane-1,3′-indolin]-2′-one 2,2,2-trifluoroacetate]"
3,< 50%,"CCc1ccc2c(c1)[C@]1(C[C@H]1c1ccc3c(-c4cccc(CN5CCOCC5)c4)n[nH]c3c1)C(=O)N2 (relative stereo) [Example A141, (1R*,2S*)-5′-ethyl-2-(3-(3-(morpholinomethyl)phenyl)-1H-indazol-6-yl)spiro[cyclopropane-1,3′-indolin]-2′-one 2,2,2-trifluoroacetate]"
4,> 50%,"NC(=O)CN1C(=O)[C@@]2(C[C@H]2c2ccc3c(/C=C/c4ccc(CN5CCCCC5)cc4)n[nH]c3c2)c2ccccc21 (relative stereo) [Example A165, 2-((1R*,2S*)-(E)-2′-oxo-2-(3-(4-(piperidin-1-ylmethyl)styryl)-1H-indazol-6-yl)spiro[cyclopropane-1,3′-indoline]-1′-yl)acetamide 2,2,2-trifluoroacetate]"
5,> 50%,"COc1ccc2c(c1)[C@]1(C[C@H]1c1ccc3c(/C=C/c4ccc(CN5[C@H](C)CCC[C@@H]5C)cc4)n[nH]c3c1)C(=O)N2 [Example A203, (1R,2S)-(E)-2-(3-(4-((cis-2,6-dimethylpiperidin-1-yl)methyl)styryl)-1H-indazol-6-yl)-5′-methoxyspiro[cyclopropane-1,3′-indolin]-2′-one 2,2,2-trifluoroacetate]"
6,> 50%,"COc1ccc2c(c1)[C@]1(C[C@H]1c1ccc3c(-c4ccc(N5CC[C@@H](N(C)C)C5)cc4)n[nH]c3c1)C(=O)N2 [Example A127, (1R,2S)-2-(3-(4-((R)-3-(dimethylamino)pyrrolidin-1-yl)phenyl)-1H-indazol-6-yl)-5′-methoxyspiro[cyclopropane-1,3′-indolin]-2′-one 2,2,2-trifluoroacetate]"
7,< 50%,"NS(=O)(=O)c1cccc(-c2n[nH]c3cc([C@@H]4C[C@@]45C(=O)Nc4ccccc45)ccc23)c1 (relative stereo) [Example A130, 3-(6-((1R*,2S*)-2′-oxospiro[cyclopropane-1,3′-indoline]-2-yl)-1H-indazol-3-yl)benzenesulfonamide]"
8,< 50%,"COc1ccc2c(c1)[C@]1(C[C@H]1c1ccc3c(-c4ccc(CN5CCOCC5)cc4)n[nH]c3c1)C(=O)N2 (relative stereo) [Example A139, (1R*,2S*)-5′-methoxy-2-(3-(4-(morpholinomethyl)phenyl)-1H-indazol-6-yl)spiro[cyclopropane-1,3′-indolin]-2′-one 2,2,2-trifluoroacetate]"
9,> 50%,"O=C1Nc2ccccc2[C@]12C[C@H]2c1ccc2c(/C=C/c3ccc(OCCN4CCOCC4)cc3)n[nH]c2c1 [Example A204, (1R,2S)-(E)-2-(3-(4-(2-morpholinoethoxy)styryl)-1H-indazol-6-yl)spiro[cyclopropane-1,3′-indolin]-2′-one 2,2,2-trifluoroacetate]"
10,< 50%,"COc1ccc2c(c1)[C@]1(C[C@H]1c1ccc3c(-c4ccc(C5CCN(C)CC5)cc4)n[nH]c3c1)C(=O)N2 [Example A123, (1R,2S)-5′-methoxy-2-(3-(4-(1-methylpiperidin-4-yl)phenyl)-1H-indazol-6-yl)spiro[cyclopropane-1,3′-indolin]-2′-one hydrochloride]"
11,> 50%,"O=C1Nc2ccc(F)cc2[C@]12C[C@H]2c1ccc2c(/C=C/c3ccc(N4CCOCC4)nc3)n[nH]c2c1 (relative stereo) [Example A207, (1R*,2S*)-5′-fluoro-2-(3-((E)-2-(6-morpholinopyridin-3-yl)vinyl)-1H-indazol-6-yl)spiro[cyclopropane-1,3′-indolin]-2′-one 2,2,2-trifluoroacetate]"
12,> 50%,"CCN1CCN(c2ccc(/C=C/c3n[nH]c4cc([C@@H]5C[C@@]56C(=O)Nc5ccc(OC)cc56)ccc34)cc2)CC1 (relative stereo) [Example A188, (1R*,2S*)-(E)-2-(3-(4-(4-ethylpiperazin-1-yl)styryl)-1H-indazol-6-yl)-5′-methoxyspiro[cyclopropane-1,3′-indolin]-2′-one 2,2,2-trifluoroacetate]"
13,> 50%,"COc1ccc2c(c1)[C@]1(C[C@H]1c1ccc3c(/C=C/c4csc(CN5CCOCC5)c4)n[nH]c3c1)C(=O)N2 [Example A183, (1R,2S)-5′-methoxy-2-(3-((E)-2-(5-(morpholinomethyl)thiophen-3-yl)vinyl)-1H-indazol-6-yl)spiro[cyclopropane-1,3′-indolin]-2′-one 2,2,2-trifluoroacetate]"
14,> 50%,"COc1ccc2c(c1)[C@]1(C[C@H]1c1ccc3c(/C=C/c4ccc(CN5CC[C@@H](F)C5)cc4)n[nH]c3c1)C(=O)N2 [Example A112, (1R,2S)-(E)-2-(3-(4-(((R)-3-fluoropyrrolidin-1-yl)methyl)styryl)-1H-indazol-6-yl)-5′-methoxyspiro[cyclopropane-1,3′-indolin]-2′-one 2,2,2-trifluoroacetate]"
15,< 50%,"CN1CCN(C(=O)c2ccc(-c3n[nH]c4cc([C@@H]5C[C@@]56C(=O)Nc5ccccc56)ccc34)cc2)CC1 (relative stereo) [Example A156, (1R*,2S*)-2-(3-(4-(4-methylpiperazine-1-carbonyl)phenyl)-1H-indazol-6-yl)spiro[cyclopropane-1,3′-indolin]-2′-one 2,2,2-trifluoroacetate]"
